Experimental data published in paper PMC4854315, “Discovery of a novel allosteric inhibitor-binding site in ERK5: comparison with the canonical kinase hinge ATP-binding site” (Acta Crystallographica. Section D, Structural Biology, 2016).

Key:
Experiment in all cases: Z'-LYTE kinase panel
Type in all cases: biochemical
AXL = target: T1, AXL (Homo sapiens, UniProt P30530)
T1 construct: purchased ThermoFisher (SelectScreen, Z'-LYTE)
T1 sequence (P30530 26-894): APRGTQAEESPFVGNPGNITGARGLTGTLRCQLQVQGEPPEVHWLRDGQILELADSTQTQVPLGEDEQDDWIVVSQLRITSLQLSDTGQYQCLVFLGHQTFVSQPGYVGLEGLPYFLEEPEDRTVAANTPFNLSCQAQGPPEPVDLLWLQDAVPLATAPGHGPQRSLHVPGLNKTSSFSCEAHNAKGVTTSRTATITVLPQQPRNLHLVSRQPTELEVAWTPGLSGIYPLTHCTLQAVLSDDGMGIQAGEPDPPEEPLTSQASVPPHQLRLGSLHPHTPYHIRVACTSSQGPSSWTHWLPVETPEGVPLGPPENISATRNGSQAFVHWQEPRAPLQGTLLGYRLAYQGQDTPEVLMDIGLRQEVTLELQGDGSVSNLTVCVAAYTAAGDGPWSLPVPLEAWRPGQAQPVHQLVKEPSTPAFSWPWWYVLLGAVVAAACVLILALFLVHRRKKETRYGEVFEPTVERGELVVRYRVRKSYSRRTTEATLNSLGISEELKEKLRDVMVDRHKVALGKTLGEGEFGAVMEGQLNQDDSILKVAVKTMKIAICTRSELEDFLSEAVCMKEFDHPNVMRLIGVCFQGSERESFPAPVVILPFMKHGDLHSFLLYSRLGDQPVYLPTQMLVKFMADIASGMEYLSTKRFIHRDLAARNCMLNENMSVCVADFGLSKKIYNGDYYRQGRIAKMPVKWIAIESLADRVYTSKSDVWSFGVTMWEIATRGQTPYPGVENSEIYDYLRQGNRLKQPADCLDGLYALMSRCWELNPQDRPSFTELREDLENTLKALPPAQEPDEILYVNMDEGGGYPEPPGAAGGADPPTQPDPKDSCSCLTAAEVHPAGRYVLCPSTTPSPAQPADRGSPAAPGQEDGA
Summary of the method: (§1)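 Compounds were profiled across a 225-kinase standard panel. Each kinase was run in the standard Z′-LYTE assay and percentage inhibition was recorded at a compound concentration of 10 µM.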

EPHB1 = target: T2, EPHB1 (Homo sapiens, UniProt P54762)
T2 construct: purchased ThermoFisher (SelectScreen, Z'-LYTE)
T2 sequence (P54762 18-984): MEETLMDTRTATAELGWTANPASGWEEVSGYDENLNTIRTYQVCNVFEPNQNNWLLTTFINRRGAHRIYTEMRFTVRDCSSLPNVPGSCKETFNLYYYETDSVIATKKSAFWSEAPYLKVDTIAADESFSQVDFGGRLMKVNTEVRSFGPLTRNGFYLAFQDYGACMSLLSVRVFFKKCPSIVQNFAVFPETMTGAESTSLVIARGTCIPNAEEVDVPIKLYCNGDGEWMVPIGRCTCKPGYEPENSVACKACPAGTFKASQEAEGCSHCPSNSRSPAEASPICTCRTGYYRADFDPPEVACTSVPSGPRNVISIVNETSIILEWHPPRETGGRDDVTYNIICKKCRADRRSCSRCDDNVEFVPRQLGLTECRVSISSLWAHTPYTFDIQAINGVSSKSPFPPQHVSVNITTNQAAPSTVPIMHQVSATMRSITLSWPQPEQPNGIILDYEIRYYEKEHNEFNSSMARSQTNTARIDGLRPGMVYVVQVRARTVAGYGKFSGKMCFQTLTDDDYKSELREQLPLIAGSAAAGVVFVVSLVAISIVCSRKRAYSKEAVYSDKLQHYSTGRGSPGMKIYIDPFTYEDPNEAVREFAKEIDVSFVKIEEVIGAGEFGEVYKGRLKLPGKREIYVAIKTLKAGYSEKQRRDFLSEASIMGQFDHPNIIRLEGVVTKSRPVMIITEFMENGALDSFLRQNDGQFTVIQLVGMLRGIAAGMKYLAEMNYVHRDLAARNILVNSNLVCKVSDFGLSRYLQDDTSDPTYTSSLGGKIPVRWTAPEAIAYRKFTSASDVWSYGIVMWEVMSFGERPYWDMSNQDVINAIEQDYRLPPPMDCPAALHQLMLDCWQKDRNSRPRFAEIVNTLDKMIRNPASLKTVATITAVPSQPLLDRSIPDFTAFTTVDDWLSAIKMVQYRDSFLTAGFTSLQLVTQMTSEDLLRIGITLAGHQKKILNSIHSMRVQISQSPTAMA
Summary of the method: as §1

IKBKB (IKK beta) = target: T3, IKBKB (IKK beta) (Homo sapiens, UniProt O14920)
T3 construct: purchased ThermoFisher (SelectScreen, Z'-LYTE)
T3 sequence (O14920 1-756): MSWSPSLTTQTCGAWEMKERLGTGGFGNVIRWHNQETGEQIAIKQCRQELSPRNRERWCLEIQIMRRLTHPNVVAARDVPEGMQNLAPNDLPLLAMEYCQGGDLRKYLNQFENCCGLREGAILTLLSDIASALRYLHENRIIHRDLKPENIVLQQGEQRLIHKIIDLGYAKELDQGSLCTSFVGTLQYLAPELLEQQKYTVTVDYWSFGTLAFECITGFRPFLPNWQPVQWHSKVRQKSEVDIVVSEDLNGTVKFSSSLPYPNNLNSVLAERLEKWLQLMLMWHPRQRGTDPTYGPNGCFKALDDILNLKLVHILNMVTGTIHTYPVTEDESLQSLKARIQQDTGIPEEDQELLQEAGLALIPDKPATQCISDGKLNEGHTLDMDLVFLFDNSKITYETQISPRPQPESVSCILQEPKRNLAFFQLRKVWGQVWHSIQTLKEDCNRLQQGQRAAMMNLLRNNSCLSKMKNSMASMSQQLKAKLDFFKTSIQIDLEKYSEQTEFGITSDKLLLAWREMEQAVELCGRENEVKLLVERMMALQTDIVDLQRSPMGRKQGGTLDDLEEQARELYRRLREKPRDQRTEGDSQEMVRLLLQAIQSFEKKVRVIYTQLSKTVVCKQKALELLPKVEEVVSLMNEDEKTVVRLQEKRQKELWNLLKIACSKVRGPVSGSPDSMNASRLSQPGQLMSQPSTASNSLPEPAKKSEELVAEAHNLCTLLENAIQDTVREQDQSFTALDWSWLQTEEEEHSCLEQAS
Summary of the method: as §1

JAK1 = target: T4, JAK1 (Homo sapiens, UniProt P23458)
T4 construct: purchased ThermoFisher (SelectScreen, Z'-LYTE)
Summary of the method: as §1

T4 sequence (P23458 whole entry): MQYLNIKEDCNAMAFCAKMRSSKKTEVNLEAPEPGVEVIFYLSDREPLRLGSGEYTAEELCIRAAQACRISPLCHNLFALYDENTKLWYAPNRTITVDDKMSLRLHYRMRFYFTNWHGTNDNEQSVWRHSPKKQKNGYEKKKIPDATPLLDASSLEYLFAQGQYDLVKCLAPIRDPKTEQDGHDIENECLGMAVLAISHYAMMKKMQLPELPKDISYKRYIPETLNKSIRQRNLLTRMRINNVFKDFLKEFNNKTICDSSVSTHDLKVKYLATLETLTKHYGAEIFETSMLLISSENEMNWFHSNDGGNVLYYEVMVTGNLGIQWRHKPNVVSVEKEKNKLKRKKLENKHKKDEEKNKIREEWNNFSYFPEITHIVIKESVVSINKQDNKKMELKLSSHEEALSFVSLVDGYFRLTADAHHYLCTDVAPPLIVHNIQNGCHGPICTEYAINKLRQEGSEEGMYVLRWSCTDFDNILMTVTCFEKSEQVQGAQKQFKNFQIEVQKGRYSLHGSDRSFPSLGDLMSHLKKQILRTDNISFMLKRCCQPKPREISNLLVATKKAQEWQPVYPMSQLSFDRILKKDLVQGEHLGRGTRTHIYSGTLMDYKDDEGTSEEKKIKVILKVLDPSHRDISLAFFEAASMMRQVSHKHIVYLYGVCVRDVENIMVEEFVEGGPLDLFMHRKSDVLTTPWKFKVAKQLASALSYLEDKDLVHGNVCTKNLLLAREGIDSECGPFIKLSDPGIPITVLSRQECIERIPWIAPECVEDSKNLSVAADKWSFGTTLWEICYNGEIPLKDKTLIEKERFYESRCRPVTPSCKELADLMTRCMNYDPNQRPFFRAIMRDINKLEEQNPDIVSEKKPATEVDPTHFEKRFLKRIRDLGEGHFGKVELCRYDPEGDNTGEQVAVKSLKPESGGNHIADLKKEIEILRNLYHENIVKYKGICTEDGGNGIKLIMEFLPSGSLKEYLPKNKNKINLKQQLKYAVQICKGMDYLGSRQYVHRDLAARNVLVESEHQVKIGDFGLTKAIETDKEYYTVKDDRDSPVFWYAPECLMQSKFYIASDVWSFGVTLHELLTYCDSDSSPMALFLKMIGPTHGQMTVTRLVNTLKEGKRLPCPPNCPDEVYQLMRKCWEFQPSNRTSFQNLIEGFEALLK

| Molecule | inhibition at 10 µM (AXL) | inhibition at 10 µM (EPHB1) | inhibition at 10 µM (IKBKB (IKK beta)) | inhibition at 10 µM (JAK1) | AXL % Inhibition (AXL; 10 µM compound, ATP Km app) | EPHB1 % Inhibition (EPHB1; 10 µM compound, ATP Km app) | IKBKB (IKK beta) % Inhibition (IKBKB (IKK beta); 10 µM compound, ATP Km app) | JAK1 % Inhibition (JAK1; 10 µM compound, ATP Km app) |
| --- | --- | --- | --- | --- | --- | --- | --- | --- |
| Cc1ncc(-c2nc(Nc3ccc(C(=O)NCCN4CCCCC4)cc3)ncc2F)n1C(C)C [Compound 3] | 95% | 94% | 33% | 101% | – | – | – | – |
| Cc1cc(Nc2nc(N)nn2C(=O)NC(C)C)ccc1Cl [Compound 5] | 18% | 7.51% | 3.42% | 60% | – | – | – | – |
| XMD8-92 [Compound 2, reference compound] | – | – | – | – | 3% | 5.39% | 44% | 32% |
